Measured values reported in patent publication US10556898B2, “Indazolyl-1,2,4-thiadiazolamines and related compounds for inhibition of Rho-associated protein kinase and the treatment of disease” (Lycera Corporation, priority 2016, dated 2020).
Read-outs that look alike come from different tables or passages of the source.

Assays:
[1] = target: T1, GST-tagged human ROCK1 catalytic domain 1-477 (Homo sapiens, UniProt Q13464); experiment: Isolated Enzyme Assay, ROCK1 (LANCE Ultra ULight-CREBtide FRET); assay type: biochemical; details: 30 μM highest concentration tested, read-out: Results from Isolated Enzyme Assay IC50 (μM) ROCK1
T1 construct: human ROCK1 catalytic domain 1-477 from Carna Biosciences (cat #01-109); purchased Carna Biosciences 01-109; host or cells: baculovirus expression system
Procedure, shortened: (§1)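 Baculovirus-expressed constitutively active ROCK1 or ROCK2 (2 nM) incubated 90 min at room temperature with 50 nM ULight-CREBtide and compound (0.5% DMSO) in Tris pH 7.5, MgCl2, EGTA, Tween-20, DTT. EDTA-stopped; phospho-substrate detected by Eu-anti-phospho-CREB TR-FRET after 60 min; IC50 by non-linear regression.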

[2] = target: T2, GST-tagged human ROCK2 catalytic domain 1-553 (Homo sapiens, UniProt O75116); experiment: Isolated Enzyme Assay, ROCK2 (LANCE Ultra ULight-CREBtide FRET); assay type: biochemical; details: 30 μM highest concentration tested, read-out: Results from Isolated Enzyme Assay IC50 (μM) ROCK2
T2 construct: GST-tagged human ROCK2 catalytic domain 1-553 from Carna Biosciences (Cat #01-110); purchased Carna Biosciences 01-110; host or cells: baculovirus expression system
Procedure, shortened: as §1

ROCK1 = target: T3, ROCK1 (Homo sapiens, UniProt Q13464); experiment: Cell-Based Assay, ROCK1 (HAP1 knockout cells, phospho-MYPT1 Thr853 ELISA); details: read-out: Results from Cell-Based Assay IC50 (μM) ROCK1
T3 construct: endogenous in cells; host or cells: HAP1 knockout cells
Experimental: Part II—Procedure for Determining ROCK Inhibition Ability of Test Compounds Using a Cell-Base Assay
The Cell-Based Assay for determining ROCK inhibition ability of test compounds utilized a genetically modified HAP1 cell line engineered to eliminate expression of either ROCK1 or ROCK2. In the procedure, HAP1 knockout cells are grown in Iscove's Modified Dulbecco's Medium that is additionally supplemented with 10% fetal bovine and 1x antibiotic-antimycotic mixture. Cells are plated in 96 well tissue culture plates at 1×10^5 cells/well (100 μL, of cells at 1×10^6/mL). Test compounds are solubilized in DMSO and diluted into the same media used to grow the cells. A 100 μL, aliquot of each compound dilution in media is added to each well containing the HAP1 cells and incubated at 37° C. for 30 minutes. Following compound incubation, the cells are pelleted by centrifugation at 1800 rpm for 5 minutes at 4° C. Media is removed from the cell pellet and the cells lysed and de-salted. An 80 μL, aliquot of each cell lysate is added to a single well of a 96-well high binding ELISA plate which has been pre-coated with a MYPT1 capture antibody and incubated at 4° C. overnight. The following day the ELISA plate is washed 4× with 0.05% Tween-20 in PBS. After washing, an anti-phospho-MYPT1 (Thr853) antibody is added and allowed to bind for 1 hour at room temperature. The wash step is repeated, and then an anti-rabbit HRP detection antibody is added and allowed to incubate at room temperature for 1 hour. The wash step is then repeated and 100 μL/well 1-Step™ Ultra TMB substrate is added to the ELISA plate and allowed to develop for approximately 5 minutes. The reaction is stopped by addition of H2SO4. Absorbance is read at 450 OD. Data is analyzed using GraphPad Prism software to calculate the 50% inhibitory concentration of test compound (IC50).

ROCK2 = target: T4, ROCK2 (Homo sapiens, UniProt O75116); experiment: Cell-Based Assay, ROCK2 (HAP1 knockout cells, phospho-MYPT1 Thr853 ELISA); details: read-out: Results from Cell-Based Assay IC50 (μM) ROCK2
T4 construct: endogenous in cells; host or cells: HAP1 knockout cells

[3] = phospho-MYPT1, 30 μM highest concentration tested

T1 sequence (Q13464 1-477): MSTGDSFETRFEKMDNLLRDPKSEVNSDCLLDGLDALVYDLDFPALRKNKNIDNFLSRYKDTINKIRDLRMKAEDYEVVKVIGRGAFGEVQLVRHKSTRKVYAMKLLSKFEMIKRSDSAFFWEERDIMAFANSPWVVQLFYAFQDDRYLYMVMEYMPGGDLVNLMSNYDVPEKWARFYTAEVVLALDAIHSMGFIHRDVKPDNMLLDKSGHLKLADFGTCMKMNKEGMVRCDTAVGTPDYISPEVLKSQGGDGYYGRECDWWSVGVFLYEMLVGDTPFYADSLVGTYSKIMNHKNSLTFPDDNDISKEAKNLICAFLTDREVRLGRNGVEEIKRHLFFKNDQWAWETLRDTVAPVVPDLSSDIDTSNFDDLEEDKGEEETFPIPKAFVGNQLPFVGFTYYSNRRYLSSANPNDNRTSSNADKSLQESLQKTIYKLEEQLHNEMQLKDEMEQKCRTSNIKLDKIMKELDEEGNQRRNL
T4 sequence (O75116 whole entry): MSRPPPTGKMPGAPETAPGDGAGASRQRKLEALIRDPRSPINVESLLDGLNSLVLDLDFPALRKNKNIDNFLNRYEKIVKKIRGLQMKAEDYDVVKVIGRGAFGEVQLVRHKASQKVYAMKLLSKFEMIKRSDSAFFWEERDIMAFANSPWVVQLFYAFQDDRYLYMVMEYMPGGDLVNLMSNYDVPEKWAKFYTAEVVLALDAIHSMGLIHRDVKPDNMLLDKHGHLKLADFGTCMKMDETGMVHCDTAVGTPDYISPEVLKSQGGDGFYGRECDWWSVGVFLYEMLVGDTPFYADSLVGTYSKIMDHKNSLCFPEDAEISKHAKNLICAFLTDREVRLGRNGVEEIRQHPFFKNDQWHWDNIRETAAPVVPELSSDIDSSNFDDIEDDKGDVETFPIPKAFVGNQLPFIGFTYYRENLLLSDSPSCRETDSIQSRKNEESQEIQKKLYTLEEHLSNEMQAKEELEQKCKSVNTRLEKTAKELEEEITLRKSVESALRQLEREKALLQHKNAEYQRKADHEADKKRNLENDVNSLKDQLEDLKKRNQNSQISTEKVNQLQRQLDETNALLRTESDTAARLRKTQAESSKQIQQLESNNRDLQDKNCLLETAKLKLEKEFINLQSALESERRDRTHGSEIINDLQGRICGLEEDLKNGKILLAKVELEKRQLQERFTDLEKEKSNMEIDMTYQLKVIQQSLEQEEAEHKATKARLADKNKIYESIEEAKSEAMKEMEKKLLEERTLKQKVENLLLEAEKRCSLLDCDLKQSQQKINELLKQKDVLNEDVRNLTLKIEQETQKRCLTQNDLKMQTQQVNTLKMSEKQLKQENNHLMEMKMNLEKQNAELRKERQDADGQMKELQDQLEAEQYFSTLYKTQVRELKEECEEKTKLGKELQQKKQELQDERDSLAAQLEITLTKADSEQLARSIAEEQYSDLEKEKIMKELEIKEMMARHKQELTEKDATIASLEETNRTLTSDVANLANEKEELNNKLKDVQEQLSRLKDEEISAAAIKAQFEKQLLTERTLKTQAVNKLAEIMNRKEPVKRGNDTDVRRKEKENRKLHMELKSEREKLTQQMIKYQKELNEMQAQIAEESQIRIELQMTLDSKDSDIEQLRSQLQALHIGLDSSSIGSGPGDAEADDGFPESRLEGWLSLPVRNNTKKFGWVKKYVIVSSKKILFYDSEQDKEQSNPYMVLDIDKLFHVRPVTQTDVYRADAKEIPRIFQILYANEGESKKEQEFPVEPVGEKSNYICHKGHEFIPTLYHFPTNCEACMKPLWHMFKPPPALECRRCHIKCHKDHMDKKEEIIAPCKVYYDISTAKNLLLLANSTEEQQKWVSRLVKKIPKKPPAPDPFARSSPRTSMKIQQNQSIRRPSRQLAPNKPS
T3 sequence (Q13464 whole entry): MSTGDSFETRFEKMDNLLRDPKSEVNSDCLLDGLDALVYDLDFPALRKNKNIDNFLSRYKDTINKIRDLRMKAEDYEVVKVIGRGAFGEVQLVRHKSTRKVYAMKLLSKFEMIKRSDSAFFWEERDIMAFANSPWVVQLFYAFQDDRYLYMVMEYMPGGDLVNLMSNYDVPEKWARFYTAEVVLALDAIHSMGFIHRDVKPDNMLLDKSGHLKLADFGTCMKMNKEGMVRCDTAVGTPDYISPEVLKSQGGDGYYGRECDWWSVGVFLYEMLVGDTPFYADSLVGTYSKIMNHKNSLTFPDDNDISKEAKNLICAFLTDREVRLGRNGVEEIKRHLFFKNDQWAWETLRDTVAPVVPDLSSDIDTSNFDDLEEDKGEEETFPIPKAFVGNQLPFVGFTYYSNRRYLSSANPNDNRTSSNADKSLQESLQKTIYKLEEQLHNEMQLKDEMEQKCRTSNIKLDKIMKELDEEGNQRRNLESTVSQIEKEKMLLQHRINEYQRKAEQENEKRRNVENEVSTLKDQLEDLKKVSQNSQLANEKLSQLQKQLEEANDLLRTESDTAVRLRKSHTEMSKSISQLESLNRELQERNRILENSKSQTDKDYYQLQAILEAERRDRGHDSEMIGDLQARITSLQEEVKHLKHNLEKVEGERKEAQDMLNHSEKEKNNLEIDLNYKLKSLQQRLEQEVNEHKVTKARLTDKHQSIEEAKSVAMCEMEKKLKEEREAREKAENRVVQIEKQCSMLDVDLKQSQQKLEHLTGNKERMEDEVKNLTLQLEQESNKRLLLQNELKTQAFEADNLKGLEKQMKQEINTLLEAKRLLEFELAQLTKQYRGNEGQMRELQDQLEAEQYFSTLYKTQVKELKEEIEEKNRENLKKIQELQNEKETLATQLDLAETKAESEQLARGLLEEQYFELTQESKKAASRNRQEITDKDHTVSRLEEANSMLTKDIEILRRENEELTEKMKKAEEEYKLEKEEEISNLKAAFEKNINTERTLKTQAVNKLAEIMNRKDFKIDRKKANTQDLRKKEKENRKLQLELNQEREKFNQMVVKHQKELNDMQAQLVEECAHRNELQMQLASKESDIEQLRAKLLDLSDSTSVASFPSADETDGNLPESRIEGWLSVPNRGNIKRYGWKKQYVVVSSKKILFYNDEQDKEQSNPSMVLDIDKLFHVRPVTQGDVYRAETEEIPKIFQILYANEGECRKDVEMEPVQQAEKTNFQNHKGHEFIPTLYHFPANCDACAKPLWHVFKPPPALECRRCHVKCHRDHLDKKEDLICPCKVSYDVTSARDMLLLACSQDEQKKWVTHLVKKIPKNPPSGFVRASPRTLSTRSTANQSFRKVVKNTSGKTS
T2 sequence (O75116 1-553): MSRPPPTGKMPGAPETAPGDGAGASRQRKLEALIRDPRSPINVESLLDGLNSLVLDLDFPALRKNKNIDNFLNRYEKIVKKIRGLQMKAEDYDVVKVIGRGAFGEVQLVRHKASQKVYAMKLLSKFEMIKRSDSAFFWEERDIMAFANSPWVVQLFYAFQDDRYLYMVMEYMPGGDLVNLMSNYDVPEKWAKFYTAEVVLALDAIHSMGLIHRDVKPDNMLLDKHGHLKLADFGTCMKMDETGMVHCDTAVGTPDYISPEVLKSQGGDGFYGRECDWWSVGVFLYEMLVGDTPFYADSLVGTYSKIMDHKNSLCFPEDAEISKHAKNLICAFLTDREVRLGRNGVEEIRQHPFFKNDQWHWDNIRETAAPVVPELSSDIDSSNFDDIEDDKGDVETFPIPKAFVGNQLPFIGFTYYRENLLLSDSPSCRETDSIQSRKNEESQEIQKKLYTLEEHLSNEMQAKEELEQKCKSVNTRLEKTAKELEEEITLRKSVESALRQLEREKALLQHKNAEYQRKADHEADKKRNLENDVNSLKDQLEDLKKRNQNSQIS

IC50 ([1]; isolated enzyme assay) [µM] | IC50 ([2]; isolated enzyme assay) [µM] | IC50 (ROCK1; numeric bound) [µM] | IC50 (ROCK2; numeric bound) [µM] | IC50 (ROCK1; class symbols) [µM] | IC50 (ROCK2; class symbols) [µM] | IC50 ([1]; isolated enzyme) [µM] | IC50 ([2]; isolated enzyme) [µM] | IC50 (ROCK1; [3]) [µM] | IC50 (ROCK2; [3]) [µM] | SMILES
< 1 | < 1 | – | – | 1 to 15 | < 1 | – | – | – | – | CC(C)c1cc(C(=O)Nc2cccc(-c3nsc(Nc4ccc5[nH]ncc5c4Cl)n3)c2)n(C)n1 [IV-63]
< 1 | < 1 | > 10 | – | – | < 1 | – | – | – | – | Cn1ccnc1C(=O)Nc1cccc(-c2nsc(Nc3ccc4[nH]ncc4c3Cl)n2)c1 [IV-73]
< 1 | < 1 | – | – | 1 to 15 | < 1 | – | – | – | – | O=C(Nc1cccc(-c2nsc(Nc3ccc4[nH]ncc4c3Cl)n2)c1)c1ccccn1 [IV-74]
< 1 | < 1 | > 10 | – | – | < 1 | – | – | – | – | Cn1ccc(C(=O)Nc2cccc(-c3nsc(Nc4ccc5[nH]ncc5c4Cl)n3)c2)n1 [IV-77]
< 1 | < 1 | > 10 | – | – | < 1 | – | – | – | – | O=C(Nc1cccnc1)c1cccc(-c2nsc(Nc3ccc4[nH]ncc4c3Cl)n2)c1 [IV-65]
< 1 | < 1 | – | – | 1 to 15 | < 1 | – | – | – | – | CC(C)N1CCN(c2cc(-c3nsc(Nc4ccc5[nH]ncc5c4Cl)n3)ccn2)C1=O [IV-90]
> 30 | < 1 | > 10 | – | – | < 1 | – | – | – | – | Cc1cc(C(=O)Nc2cc(-c3nsc(Nc4ccc5[nH]ncc5c4Cl)n3)ccn2)n(C)n1 [IV-58]
< 1 | < 1 | – | – | 1 to 15 | < 1 | – | – | – | – | O=C(CC1CCCO1)Nc1cccc(-c2nsc(Nc3ccc4[nH]ncc4c3Cl)n2)c1 (stereo not drawn) [IV-71]
< 1 | < 1 | > 10 | – | – | < 1 | – | – | – | – | Cn1cc(C(=O)Nc2cccc(-c3nsc(Nc4ccc5[nH]ncc5c4Cl)n3)c2)cn1 [IV-78]
< 1 | < 1 | – | – | 1 to 15 | < 1 | – | – | – | – | O=C(Nc1ccccn1)c1cccc(-c2nsc(Nc3ccc4[nH]ncc4c3Cl)n2)c1 [IV-66]
< 1 | < 1 | – | – | 1 to 15 | < 1 | – | – | – | – | CC1(C)CCN(c2cccc(-c3nsc(Nc4ccc5[nH]ncc5c4Cl)n3)c2)C1=O [IV-56]
< 1 | < 1 | > 10 | – | – | < 1 | – | – | – | – | COc1ncc(C(=O)Nc2cccc(-c3nsc(Nc4ccc5[nH]ncc5c4Cl)n3)c2)cn1 [IV-70]
< 1 | < 1 | – | – | 1 to 15 | < 1 | – | – | – | – | CC1(C)CN(c2cccc(-c3nsc(Nc4ccc5[nH]ncc5c4Cl)n3)c2)C(=O)O1 [IV-54]
< 1 | < 1 | > 10 | – | – | < 1 | – | – | – | – | CNC(=O)c1cccc(-c2nsc(Nc3ccc4[nH]ncc4c3Cl)n2)c1 [IV-107]
< 1 | < 1 | > 10 | – | – | < 1 | – | – | – | – | Cn1nncc1C(=O)Nc1cccc(-c2nsc(Nc3ccc4[nH]ncc4c3Cl)n2)c1 [IV-62]
< 1 | < 1 | – | – | 1 to 15 | < 1 | – | – | – | – | O=C1CCCN1c1cccc(-c2nsc(Nc3ccc4[nH]ncc4c3Cl)n2)c1 [IV-83]
< 1 | < 1 | > 10 | – | – | < 1 | – | – | – | – | O=C(Nc1cccc(-c2nsc(Nc3ccc4[nH]ncc4c3Cl)n2)c1)c1cc[nH]n1 [IV-75]

Continued, compound first:

SMILES | IC50 ([1]; isolated enzyme assay) [µM] | IC50 ([2]; isolated enzyme assay) [µM] | IC50 (ROCK1; numeric bound) [µM] | IC50 (ROCK2; numeric bound) [µM] | IC50 (ROCK1; class symbols) [µM] | IC50 (ROCK2; class symbols) [µM] | IC50 ([1]; isolated enzyme) [µM] | IC50 ([2]; isolated enzyme) [µM] | IC50 (ROCK1; [3]) [µM] | IC50 (ROCK2; [3]) [µM]
COc1ncc(C(=O)Nc2cc(-c3nsc(Nc4ccc5[nH]ncc5c4Cl)n3)cn(C)c2=O)cn1 [IV-7] | > 30 | < 1 | > 10 | > 10 | – | – | – | – | – | –
CC1(C)CN(c2cccc(-c3nsc(Nc4ccc5[nH]ncc5c4Br)n3)c2)C(=O)O1 [IV-35] | < 1 | < 1 | – | – | 1 to 15 | < 1 | – | – | – | –
O=C(NC1CCOCC1)c1cc(-c2nsc(Nc3ccc4[nH]ncc4c3Cl)n2)ccc1F [IV-47] | < 1 | < 1 | – | – | 1 to 15 | < 1 | – | – | – | –
Cn1cc(-c2nsc(Nc3ccc4[nH]ncc4c3Cl)n2)cc(NC(=O)c2ccccc2F)c1=O [IV-50] | > 30 | < 1 | > 10 | – | – | < 1 | – | – | – | –
C[C@@H]1CN(c2cccc(-c3nsc(Nc4ccc5[nH]ncc5c4Cl)n3)c2)C(=O)O1 [IV-31] | < 1 | < 1 | – | – | 1 to 15 | < 1 | – | – | – | –
Cn1nccc1C(=O)Nc1cccc(-c2nsc(Nc3ccc4[nH]ncc4c3Cl)n2)c1 [Compound A-3] | – | – | – | – | – | – | < 1 | < 1 | 1 to 15 | < 1
CC(C)(O)CNC(=O)c1cc(-c2nsc(Nc3ccc4[nH]ncc4c3Cl)n2)ccc1F [IV-22] | < 1 | < 1 | – | – | 1 to 15 | < 1 | – | – | – | –
Cn1ccc(C(=O)Nc2cc(-c3nsc(Nc4ccc5[nH]ncc5c4Cl)n3)cn(C)c2=O)n1 [IV-10] | > 30 | < 1 | > 10 | > 10 | – | – | – | – | – | –
Cc1cc(NC(=O)c2cn(C)cn2)cc(-c2nsc(Nc3ccc4[nH]ncc4c3Cl)n2)n1 [IV-26] | < 1 | < 1 | > 10 | – | – | < 1 | – | – | – | –
CCCOC(=O)Nc1cc(-c2nsc(Nc3ccc4[nH]ncc4c3Cl)n2)cn(C)c1=O [IV-5] | < 1 | < 1 | – | – | 1 to 15 | < 1 | – | – | – | –
Cc1cc(NC(=O)c2ccnn2C)cc(-c2nsc(Nc3ccc4[nH]ncc4c3Cl)n2)n1 [IV-13] | < 1 | < 1 | > 10 | > 10 | – | – | – | – | – | –
CNC(=O)c1cc(-c2nsc(Nc3ccc4[nH]ncc4c3Cl)n2)ccc1F [IV-49] | < 1 | < 1 | > 10 | – | – | < 1 | – | – | – | –
Cc1cnc(-c2cc(-c3nsc(Nc4ccc5[nH]ncc5c4Cl)n3)cn(C)c2=O)o1 [IV-12] | < 1 | < 1 | > 10 | – | – | < 1 | – | – | – | –
